From patent publication EP0751768B1, “ANTI-VIRAL AND ANTI-CANCER AGENT” (Radopath Pharmaceuticals International Limited, priority 1994, dated 1995)
Where “and” joins values, the source holds several entries; their conditions need not be identical. Equal values may be shown once.

Columns and labels:
[1] = test system: MAC13 murine colon adenocarcinoma; assay: Anti-tumour activity against MAC13 (tumour weight inhibition); type: in vivo; conditions: 12 days after im transplant, corn oil
Method: (§1) The in vivo anti-tumour responses of the compound according to the invention were assessed against the ascitic tumours, MAC15A murine colon adenocarcinoma and various solid tumour models. The MAC15A ascites tumour cells were transplanted into male NMR1 mice by ip innoculation at a cell density of 1 x 10^5 cells in 200µl buffer (Table I). The solid tumour models included the MAC13 and MAC16 murine colon adenocarcinomas, the B16 F1 murine melanoma and the M5076 reticulum cell sarcoma.
(§2) Treatment commenced 3 days after ip transplant or, in the case of solid tumours such as MAC13 and MAC16, treatment commenced when average tumour volumes reached 40mm^3.
(§3) The animals were located in both cases into groups of 5 to 8 animals.
(§4) The animals were sacrificed after 12 days or when tumours ulcerated, tumour volume exceeded 1000mm^3 or loss of body weight exceeded 50%.
(§5) Except where otherwise stated, the compound used was dissolved in DMSO and diluted in sterile distilled water, at appropriate concentrations before administration in a solvent volume of 200µl. Anti-tumour responses were obtained by comparing the median survival times or tumour growth inhibition against solvent controls.
(§6) % Tumour Weight Inhibition:-

uninfected H9 cells = assay: Toxicity in uninfected H9 cells, 14C protein hydrolysate incorporation, four days; type: cell-based; conditions: listed under Against Chronically infected cells; average of the lines above
Method: • (i) Acute Infection Assay. High titre virus stocks of the human immunodeficiency virus HIV-1RF were grown in H9 cells with RM1 1640 (Flow laboratories) supplemented with 10% fetal calf serum, penicillin (100IU/ml). Cell debris was removed by low speed centrifugation, and the supernatant stored at -70°C until required. In a typical assay C8166 T-lymphoblastoid CD4+ cells were incubated with 10xTCID50 HIV-1RF at 37°C for 90 minutes and then washed three times with phosphate buffered saline (PBS). Cell aliquots (2 x 10^5) were resuspended in 1.5ml growth medium in 6ml tubes, and active compounds in log dilutions [200µM to 0.2µM] were added immediately. 20mM stock solutions of each compound were made up in 70% alcohol. The compounds were stored as a powder and made up freshly in distilled water before each experiment or were stored as a […] stock solution in 70% alcohol. The final concentration of alcohol in the tissue culture medium was 1%. The cells were then incubated at 37°C in 5% CO2. […] The ELISA plates were read with a spectrophotometer. […] HIV-1 antigen in the supernatant was then measured using an ELISA. […] After 6 hours the cells were harvested and the ^14C incorporation measured. • (iii) Toxicity Assay. […] After 12, hours the cells were harvested and the ^14C incorporation measured. […] Toxicity is expressed as inhibition of uptake of ^14C protein hydrolysate. […]

B16F1-murine melanoma = type: in vivo; conditions: mouse, in vivo
[2] = test system: MAC15A (murine adenocarcinoma colon); type: in vivo, NMR1 mice; conditions: mouse, in vivo, ip
[3] = test system: MAC16, murine colon adenocarcinoma; assay: Anti-tumour activity against MAC16 (tumour weight inhibition); type: in vivo; conditions: for % Tumour Weight Inhibition: sc transplanted, day 11 after the beginning of treatment, tumour volumes at least 40mm^3 at start, corn oil
Method: as §1, §2, §3, §4, §5, §6

[4] = test system: Chronically infected cells (H9rf); assay: Chronically infected cell assay, HIV-1 antigen ELISA; type: cell-based; conditions: Against Chronically infected cells
HIV-1RF = assay: microbe, parasite or virus in culture; type: cell-based, human immunodeficiency virus HIV-1RF
[5] = test system: M5076-reticulum cell sarcoma; assay: Anti-tumour activity against M5076 solid tumour (tumour weight inhibition); type: in vivo, murine; conditions: for % Tumour Weight Inhibition: 16 days after im transplant, corn oil
Method: as §1, §2, §3, §4, §5, §6

in vitro = conditions: CC50 (Toxicity)
HIV-I IIIB = assay: Acute infection assay, HIV core antigen ELISA (HIV-I IIIB); type: cell-based
[6] = Anti-tumour activity against M5076 solid tumour (tumour weight inhibition); type: in vivo, murine; conditions: mouse, in vivo; ip, per day, in corn oil; M5076 study; read-out: Maximum tolerated dose
Method: as §1, §2, §3, §4, §5, §6

O=C(O)c1cc([N+](=O)[O-])c(Cl)c([N+](=O)[O-])c1Cl [C1, 2,4-dichloro-3,5-dinitrobenzoic acid]
% Tumour Weight Inhibition ([1]; 50 mg/kg per day ip, days 1,2,3,4,5,6,7,8,9): 39%
% Tumour Weight Inhibition ([1]; 75 mg/kg per day ip, days 1,4,5): 45%
CC50 (uninfected H9 cells): 63 µM
inhibition of tumour growth (in words) (B16F1-murine melanoma): effectively inhibited growth
T/C% [2]: 243%
% Tumour Weight Inhibition ([3]; 50 mg/kg per day ip, days 1,2,4,5,8): 91%
% Tumour Weight Inhibition ([3]; 75 mg/kg per day ip, days 1,2,5,8): 88%
inhibition of tumour growth (in words) ([3]; MAC16 murine colon adenocarcinoma): effectively inhibited growth
SI (Selectivity Index), Average ([4]; average line): 4
IC50 ([4]; Human immunodeficiency virus 1, 96 h, four days, single determinations, read-out: IC50 (Antiviral)): 16 µM
SI (Selectivity Index), Average (HIV-1RF): 5
IC50 (HIV-1RF; Human immunodeficiency virus 1, C8166, read-out: IC50 (Antiviral), Average): 11.5 µM
% Tumour Weight Inhibition ([5]; 25 mg/kg per day ip, days 1,2,4,6,9): 75%
% Tumour Weight Inhibition ([5]; 25 mg/kg per day sc, days 1,2,4,5,6,7,9): 63%
% Tumour Weight Inhibition ([5]; 50 mg/kg per day ip, days 1,4,6,9): 57%
% Tumour Weight Inhibition ([5]; 50 mg/kg per day sc, days 1,2,4,5,6,7,9): 76%
% Tumour Weight Inhibition ([5]; 75 mg/kg per day ip, days 1,4,6,9, listed as 2,4 BA): 79% and 88%
% Tumour Weight Inhibition ([5]; 75 mg/kg per day sc, days 1,4,5,7,9): 66%
activity on a split-dose schedule down to (dose) ([5]; by both ip and sc routes): 25 mg/kg body weight
CC50 (in vitro): 30 µM
SI (Selectivity Index) (HIV-I IIIB): 2
SI (Selectivity Index), Average (HIV-I IIIB): 3
IC50 (HIV-I IIIB; Human immunodeficiency virus 1, IIIB, read-out: IC50 (Antiviral), Average): 27 µM

COC(=O)c1cc([N+](=O)[O-])c(Cl)c([N+](=O)[O-])c1Cl [C3, 2,4-dichloro-3,5-dinitrobenzoic acid methyl ester]
CC50 (uninfected cells): 7 µM
MTD [6]: 1 mg/kg
anti-tumour activity (in words) [5]: without anti-tumour activity
% Tumour Weight Inhibition ([5]; 0.25 mg/kg per day ip, days 1,2,3,4,5,6,7,8,9): 42%
% Tumour Weight Inhibition ([5]; 0.5 mg/kg per day ip, days 1,2,3,4,5,6,7,8,9): 39%
% Tumour Weight Inhibition ([5]; 1.0 mg/kg per day ip, days 1,2,3,4,5,6,7,8,9): 41%
increase in toxicity ([5]; relative to 2,4-dichloro-3,5-dinitrobenzoic acid): 10 fold
SI (Selectivity Index) (HIV-I IIIB): 23
